# Test results taken from patent US20050214738A1, “Conditional allele system” (priority 2003, published 2005).
# Where a SMILES comes first, the peptide text is derived from it. The star is where a group is joined. Cbz = O=C(OCc1ccccc1)*
# Legend:
# mutant FRBs = experiment: SeAP transcriptional switch assay, panel of FRB mutants at 2095, 2098, 2101; assay type: cell-based, human
# Protocol: All FRB mutants were prepared by the Quikchange mutagenesis method (Stratagene) using protocols provided by the manufacturer. Briefly, PCR reactions containing the parent plasmid pBJ5-FRB-VP16-HA or pBJ5-FRB*-VP16-HA and overlapping oligonucleotides containing the relevant base changes were performed with Pfu polymerase (Stratagene, San Diego, Calif.). PCR reactions were digested with the methylation sensitive restriction endonuclease Dpn1 to eliminate the parent plasmid and the reaction was transformed in XL10-Gold Ultracompetent E. coli (Stratagene).
# Electroporation details are available upon request. Cells were immediately aliquoted to 2 or 3×96 well plates with flat bottoms. […] Data was analysed with Softmax Pro (Molecular Devices), Microsoft Excel and Prism 3 (GraphPad Software).
# GSK-3βFRB* = GSK-3βFRB* (UniProt P26883+P42345, K2095P/T2098L/W2101F); experiment: Inducible stabilization of GSK-3βFRB* in knock-in MEFs (Western blot); assay type: cell-based, mouse; parameters: The minimal FRB domain comprises amino acids 2025-2114 of human mTor; endogenous in cells; host or cells: MEFs from GSK-3β^FRB* knock-in mice (fusion expressed from the targeted endogenous locus); conditions: heterozygous MEFs; for GSK-3βFRB* stability when stabilization is reversed with FK506 in presence of protease inhibitor: inhibitor added 30 minutes before FK506, 9 h
# Protocol: MEFs cell lines were prepared from E14.5-E16.5 embryos of indicated genotypes by eviscerating the embryos in HBSS, treating the remaining tissue with 0.2% collagenase and trypsin, and plating the cells in DMEM containing 10% FCS, antibiotics, and 0.1 mM β-mercaptoethanol. Once established, the MEFs were cultured using standard techniques and treated with various small molecules as indicated.
# Western Blot analysis was carried out using cell lysates prepared in RIPA buffer (10 mM Tris pH 7.2, 150 mM NaCl, 0.1% SDS, 1% Triton X-100, 1% deoxycholate, 5 mM EDTA, protease inhibitor cocktail (Invitrogen Life Technologies)) and then separated using standard SDS/PAGE before being transferred to PVDF (Millipore) using standard Western blotting procedures. The anti-GSK-3β antibody, used at 1:2500, the anti-HSP-90 antibody, 1:2500, and the anti-FKBP12 antibody, 1:2500, were purchased from BD Transduction Labs. The anti-β-catenin antibody, 1:2000, and anti-HSP-70 antibody, 1:1000 were purchased from Santa Cruz Biotechnology. […] In all cases, Western blots were incubated overnight with the appropriate primary antibodies in TBST (10 mM Tris 8.0, 150 mM NaCl, 0.1% Tween-20) containing 10% dry milk, and then washed 3 times with TBST. The blots were subsequently incubated for 30 minutes with HRP-conjugated secondary antibodies from Jackson Immunoresearch, washed 3 more times with TBST, and then developed using standard ECL reagents (Amersham Biosciences) and Kodak XAR film.
# FRB*Pax6 [1] = target: T1, FRB*Pax6 (UniProt P26883+P42345, K2095P/T2098L/W2101F); experiment: Stabilization of FRB*Pax6 in cortical neural cultures (Western blot); assay type: cell-based, mouse; conditions: replacement of MaRap after 36 hours; 500 nM after 200 nM MaRap
# T1 construct: The minimal FRB domain comprises amino acids 2025-2114 of human mTor; from tissue; host or cells: e13.5 cortical neural cultures (A14) and cultured whole embryos (A15) from Pax6^FRB* knock-in mice; fusion expressed from the targeted endogenous locus
# Excerpt: e13.5 embryos were harvested from a Pax6^FRB*/+ intercross and cortical hemispheres isolated from individuals identified by eye and craniofacial morphology and later confirmed by genotype specific PCR. Pia were removed and neocortex dissected from […] in Hank's balanced salt solution (HBSS). Tissue was minced roughly and placed in centrifuge tubes containing HBSS+20% foetal calf serum. Tissue pieces were allowed to settle and the media was replaced first with HBSS+serum then HBSS alone. The tissue was incubated with 0.1% trypsin+2 mM EDTA 10 minutes at 37° C. then the reaction stopped with HBSS+serum. Cells were triturated to a suspension and plated on 24 well plates coated with matrigel in DMEM (high glucose) supplemented with FCS (5%), N2 (GIBCO) and antibiotics.
# Extracts were prepared in RIPA buffer, protein quantified by Bradford Assay (Biorad) and 10 μg of total protein resolved by SDS-PAGE, transferred to PVDF (Millipore) filters and Pax6 or HSP90 identified with specific antibodies (1:1000, Covance and 1:2500 Transduction Laboratories, respectively) incubated 1 hour in TBS+10% nonfat milk. Secondary conjugated to horse radish peroxidase were purchased from Jackson immunochemicals and blots were developed by chemiluminescence (Amersham).
# FRB*Pax6 [2] = target: T1, FRB*Pax6; experiment: Whole embryo culture, inducible stabilization of FRB*Pax6; parameters: species or system mouse
# Protocol: Uterine horns were removed from sacrificed mothers to a petri dish containing Hank's Balanced Salt Solution (HBSS), fat was removed and the uterus cut up to isolate embryos. Individual deciduum were carefully removed from the uterus by carefully pulling apart the muscular layers in a fresh petri dish containing HBSS (sometimes supplemented with 2 mg/mL glucose) under a dissecting microscope. Embryos were removed by cutting along the lateral axis of the deciduum with fine forceps taking care not to puncture the embryonic membranes and teasing off the decidual layers overlying the embryo. Embryos were then separated from the remaining decidua at the ectoplacental cone or primitive placenta (depending on the age of the embryo).
# Reichert's membrane was grasped without the underlying visceral yolk sac, carefully torn away from the embryo and trimmed back to the placenta without ripping the yolk sac. […] The bottle rotated slowly in a roller bottle chamber at 37° C. Drugs were added directly to the culture media at the commencement of the culture.
# Embryos were fixed overnight in 4% paraformaldehyde/PBS then dehydrated through a staged ethanol series. Endogenous peroxidases were inactivated with 5% H2O2 for 4 hours in ethanol and the embryos were rehydrated. […] Embryos were washed in block 6 hours with 1 hour changes and incubated overnight at 4° C. with […] anti-mouse secondary. Embryos were washed with PBS+0.1% Triton X-100 4 times for 1 hour and developed with the DAB peroxidase kit from Vector laboratories.
# Embryos were protected with a staged series to 30% sucrose in PBS after fixation in 4% PFA (60 minutes to overnight at 4° C.). Protected embryos were embedded in OCT (VWR) frozen and sectioned on a Leica cryostat to 10 μm. Thin sections were stained according to standard protocols (obtained upon request). Secondary antibodies were purchased from Molecular Probes (Eugene, Oreg.) and primary antibodies to neurofilament, Lim3, Nkx2.2, Pax6, En1, Isl1 were obtained from Dev. Studies. Additional antibodies were from Covance, Zymed or a generous gift of Tadashi Nomura and Noriko Osumi (Sendai, Japan). Immunofluorescence was visualized by confocal microscopy.
# embryos = experiment: Overt effects on mother and embryos after IP injection of pregnant mice; assay type: in vivo, mouse; conditions: 10 mg/kg/day, similarly injected
# Protocol: GSK-3β^+/FRB* mice were intercrossed and the date of vaginal plug observation was set as E0.5. At E9.5, the stage of embryonic development was confirmed by ultrasonography (Chang, C. P. et al. “Sonographic Staging of the Developmental Status of Mouse Embryos in Utero.” (2003) Published in Genesis 36, 7-11) and mice were weighed. Drug administration commenced at E10.0. […] 100 μL was immediately injected intraperitoneally (IP) to pregnant females with injections repeated twice more at 12 hour intervals to E11.5 when mice were sacrificed, and embryos and organs were dissected and frozen in […]. Tissues anterior to the embryonic forelimbs of individual embryos were used for preparation of protein extracts with the remainder used to determine the concentration of drug and for genotyping.
# FRB = target: T2, FRB (Homo sapiens, UniProt P42345+P62942); experiment: SeAP reporter assay, dimerization of FRB-VP16 to FKBP3-GAL4DBD in COS-1 cells; assay type: cell-based; conditions: wild-type FRB(KTW)-VP16; ±95% confidence intervals
# T2 construct: The minimal FRB domain comprises amino acids 2025-2114 of human mTor; expressed in transfected cells; host or cells: COS-1 cells, electroporated with pBJ5-FRBVP, pBJ5-GF3E and pG5IL2SX
# Excerpt: (§1) Transcription activation by recruitment of chimeric transcriptional activation and DNA binding domains is described. COS-1 cells were electroporated with […] each of the following expression plasmids (Ho, S. N., Biggar, S. R., Spencer, D. M., Schreiber, S. L., and Crabtree, G. R. “Dimeric ligands define a role for transcriptional activation domains in reinitiation.” (1996) Nature 382, 822-826): pG5IL2SX (drives transcription of bacterial secreted alkaline phosphatase (SeAP) through GAL4 DNA binding […] elements), pBJ5-GF3E (which expresses the GAL4 DNA binding domain fused to three copies of human FKBP12), and pBJ5-FRBVP. (which expresses a FRB fusion with the Herpes Simplex Virus VP16 Activation domain) A FRB*-VP16 fusion protein which consists of modified FRB protein fused to the VP16 activation domain was also used selectively. Transfected cells were distributed equally to 96 well plates and were incubated at 37° C. for 24 to 36 hours before media was supplemented with drug in a dilution curve in which each point is represented in quadruplicate. Cells were incubated at 37° C. for an additional 24 hours followed by a 2-hour treatment at 65° C. to inactivate endogenous phosphatases. Each well was supplemented with 100μL of 1 mM methylumbelliferylphosphate dissolved in 2 M diethanolamine buffered to pH 10.0 with carbonate and incubated at 37° C. for 16 hours. Fluorescence was measured with a Fluoroscan (ICN) plate reader at 355 nm transmission and 455 nm emission using Deltasoft software.
# (§2) Drug efficacy was determined in a three-plasmid transcriptional switch reporter assay. ˜106 COS1 cells were coelectroporated with 2 μg of the DNA binding construct pBJ5-Gal4-FKBP(3), 2 μg pBJ5-VP16 (or the relevant mutant FRB) and 2 μg of the Gal4-SeAP reporter. Electroporation details are available upon request. […] SeAP activity was measured by fluorescence with a Spectamax M2 fluorometer (Molecular Devices, Sunnyvale, Calif.) with transmission set at 355 nm and emmission set at 460 nm. Data was analysed with Softmax Pro (Molecular Devices), Microsoft Excel and Prism 3 (GraphPad Software).
# FRB* = target: T3, FRB* (Homo sapiens, UniProt P42345+P62942, K2095P/T2098L/W2101F); experiment: SeAP reporter assay, dimerization of FRB*-VP16 to FKBP3-GAL4DBD in COS-1 cells; assay type: cell-based; conditions: FRB*(PLF)-VP16; ±95% confidence intervals
# T3 construct: The minimal FRB domain comprises amino acids 2025-2114 of human mTor; expressed in transfected cells; host or cells: COS-1 cells
# Excerpt: as §1, §2
# T1 sequence (P42345 2025-2114 K2095P/T2098L/W2101F): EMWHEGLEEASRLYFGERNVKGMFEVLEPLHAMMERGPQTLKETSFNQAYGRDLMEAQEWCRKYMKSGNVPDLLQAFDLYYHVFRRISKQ
# T1 sequence (P26883 2-108): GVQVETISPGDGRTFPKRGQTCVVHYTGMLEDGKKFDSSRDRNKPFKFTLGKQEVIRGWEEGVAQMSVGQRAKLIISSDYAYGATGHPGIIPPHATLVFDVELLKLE
# Sequence of GSK-3βFRB* (P42345 2025-2114 K2095P/T2098L/W2101F): as the sequence (P42345 2025-2114 K2095P/T2098L/W2101F) above
# Sequence of GSK-3βFRB* (P26883 2-108): as the sequence (P26883 2-108) above
# T2 sequence (P42345 2025-2114): as the sequence (P42345 2025-2114 K2095P/T2098L/W2101F) above, with P71K, L74T, F77W counted along it
# T2 sequence (P62942 whole entry, the tested form may be a part): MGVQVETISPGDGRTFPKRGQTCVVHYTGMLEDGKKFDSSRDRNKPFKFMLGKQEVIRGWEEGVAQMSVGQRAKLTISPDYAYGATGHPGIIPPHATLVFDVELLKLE
# T3 sequence (P42345 2025-2114 K2095P/T2098L/W2101F): as the sequence (P42345 2025-2114 K2095P/T2098L/W2101F) above
# T3 sequence (P62942 whole entry, the tested form may be a part): as the sequence (P62942 whole entry, the tested form may be a part) above
compound,measurement,setting,value
"CO[C@H]1[C@@H](O)[C@H](C)C[C@H](C)/C=C/C=C/C=C(\C)[C@@H](c2c[nH]c3c(C)cccc23)C[C@@H]2CC[C@@H](C)[C@@](O)(O2)C(=O)C(=O)N2CCCC[C@H]2C(=O)O[C@H]([C@H](C)C[C@@H]2CC[C@@H](O)[C@H](OC)C2)C[C@H](O)[C@H](C)/C=C(\C)[C@H]1O [C16-(S)iRap, C16-(S)7-methylindolerapamycin, reference compound]",effectiveness against all mutants relative to C16-BSrap,mutant FRBs; all mutants,significantly less effective than C16-BSrap
"CCOC(=O)[C@H]1O[C@@H]1C(=O)N[C@@H](CC(C)C)C(=O)NCCC(C)C [E-64D, reference compound]",GSK-3βFRB* stability when stabilization is reversed with FK506 in presence of protease inhibitor,GSK-3βFRB*,did not protect
"CO[C@H]1C[C@@H](C)C/C(C)=C/[C@@H](CCOC(=O)NCc2ccccc2)C(=O)C[C@H](O)[C@@H](C)[C@@H](/C(C)=C/[C@@H]2CC[C@@H](O)[C@H](OC)C2)OC(=O)[C@@H]2CCCCN2C(=O)C(=O)[C@]2(O)O[C@H]1[C@@H](OC)C[C@H]2C [FK506M, reference compound]",time for stabilized FRB*Pax6 levels to drop to the basal level,FRB*Pax6 [1],≤ 6 h
same,differentiation of Lim3-positive somatic motor neurons after transient stabilization,FRB*Pax6 [2]; 24 hours MaRap then replacement with FK506M,fail to differentiate
same,FRB*Pax6 immunoreactivity after transient stabilization,"FRB*Pax6 [2]; 24 hours MaRap then replacement with FK506M (5 μM) 24 hours, e9.5 embryos",loss of most of the FRB*Pax6 immunoreactivity
same,time for GSK-3βFRB* to return to steady state low levels,GSK-3βFRB*; 300 nM after 100 nM C20-MaRap 36 h,less than 9 hours
"CC(C)C[C@@H](C=O)NC(=O)[C@H](CC(C)C)NC(=O)[C@H](CC(C)C)NC(=O)OCc1ccccc1 [MG132, reference compound] (Cbz-Leu-Leu-Leu-aldehyde)",GSK-3βFRB* stability when stabilization is reversed with FK506 in presence of protease inhibitor,GSK-3βFRB*,remained stable
"CC(=O)N[C@@H](CSC(=O)[C@]1([C@@H](O)C(C)C)NC(=O)[C@H](C)[C@@H]1O)C(=O)O [lactacystin, reference compound]",GSK-3βFRB* stability when stabilization is reversed with FK506 in presence of protease inhibitor,GSK-3βFRB*,remained stable
"CO[C@H]1C[C@@H]2CC[C@@H](C)[C@@](O)(O2)C(=O)C(=O)N2CCCC[C@H]2C(=O)O[C@H]([C@H](C)C[C@@H]2CC[C@@H](O)[C@H](OC)C2)CC(=O)[C@H](C)/C=C(\C)[C@@H](O)[C@@H](OC)C(=O)[C@H](C)C[C@H](C)/C=C/C=C/C=C/1C [rapamycin, reference compound]",effect on embryos,embryos,produced “flat-top” embryos
C16-(R)-methallylrapamycin [C16-MaRap],EC50,FRB,273 ± 13.5 nM
same,EC50,FRB*,15.9 ± 1.5 nM
C16-(S)-3-Methylindole rapamycin [C16-iRap],"binding to FRB mutants with Trp 2101 Phe substitution, Leu at 2098","mutant FRBs; Phe at 2101, Leu at 2098",fully rescues drug binding
same,"binding to FRB mutants with Trp 2101 Phe substitution, Thr at 2098","mutant FRBs; Phe at 2101, Thr at 2098",does not bind
